# According to US20240344059A1, “Gene Editing of Regulatory Elements” (Vertex Pharmaceuticals Incorporated, priority 2021, published 2024):
# Key:
# [1] = tested on: CUG foci in myonuclei of DM1 patient myotubes; experiment: FISH staining of CUG RNA foci (SaCas9/SluCas9 sgRNA pairs); type: cell-based, human; set-up: average Foci reduction: concentration or dose not given beside the values; conditions: for average Foci reduction: myonuclei of DM1 patient myotubes
# Method: Primary myotubes were fixed for 15 min with 4% paraformaldehyde (PFA) and washed five times with 1×PBS for 5 min each at room temperature. Before staining, cells were permeabilized with 0.5% triton X-100 in 1×PBS for 5 min at room temperature, and then washed with 30% formamide and 2× saline-sodium citrate (SSC) mixture for 10 min at room temperature. Cells were then stained with 1 ng/μL of Cy3-PNA(CAG)5 probe (PNA Bio, F5001) diluted in 30% formamide, 2×SSC, 2 μg/mL BSA, 66 μg/mL yeast tRNA, and 2 mM vanadyl complex for 15 min at 80° C. Following probe staining, cells were then washed in 30% formamide and 2×SSC mixture for 30 min at 60° C., then washed in 30% formamide and 2×SSC mixture for 30 min at 55° C., and then washed in 1×SSC solution for 10 min at room temperature, and finally washed in 1×PBS for 10 min at room temperature. For staining of myotube nuclei, cells were stained with anti-Myogenin antibody diluted in 1% bovine serum albumin (BSA) for overnight at 4° C. and washed twice with 1×PBS for 5 min each at room temperature. Cells were then incubated with the secondary antibody goat anti-rabbit Alexa 488 (Thermo Fisher, A32731) diluted in 1% BSA for 1 hr at room temperature and washed twice with 1×PBS for 5 min each at room temperature. Next, cells were stained with Hoechst solution (Thermo Fisher, H3569) at 0.1 mg/ml for 5 min and washed once with 1×PBS for 5 min. PBS was aspirated and fresh 100 μl of fresh PBS was added to each well. High-throughput acquisition of images was completed with the ImageXpress Micro Confocal High-Content Imaging System (Molecular Devices). RNA foci quantifications were accomplished with a customized analysis module of the MetaXpress program (Molecular Devices).
# Each sgRNA pair consisting of one upstream sgRNA and one downstream sgRNA were assembled with recombinant SaCas9 or SluCas9 protein, respectively, into a ribonucleoprotein (RNP) complex and delivered into primary DM1 patient myoblasts with Amaxa 4D-Nucleofector. Post nucleofection, myoblasts were divided into 6 groups and were treated with DMSO (Groups 1-3) or 3 μM of DNA-dependent Protein Kinase Inhibitor (DNA-PKi) Compound 6 (Group 4-6) for 48 hrs. DNA-PKi was used to boost the excision efficiency and to better understand the contribution of E-boxes to DMPK transcription. 72 hrs post nucleofection, myoblasts from Groups 1 and 4 were collected for genomic DNA isolation, whereas the rest of the groups were subjected to myogenic differentiation to form myotubes. The myotubes were collected on Day 15 post nucleofection (Day 12 post differentiation) for mRNA isolation (Group 2 and 5) and RNA foci staining (Groups 3 and 6) (FIG. 9).
# [2] = tested on: CUG RNA foci in primary DM1 patient myoblasts / myotubes; experiment: FISH staining of CUG RNA foci (SpCas9 sgRNA pairs); type: cell-based, human; conditions: DM1 patient myotubes nucleofected with SpCas9 sgRNA pairs, Group 5 vs Group 6
# Method: Primary myoblasts were fixed for 15 min with 4% paraformaldehyde (PFA) and washed five times with 1×PBS for 10 min each at room temperature. Before staining, cells were permeabilized with 0.5% triton X-100 in 1×PBS for 5 min at room temperature, and then washed with 30% formamide and 2× saline-sodium citrate (SSC) mixture for 10 min at room temperature. Cells were then stained with 1 ng/μL of Cy3-PNA(CAG)5 probe (PNA Bio, F5001) diluted in 30% formamide, 2×SSC, 2 μg/mL BSA, 66 μg/mL yeast tRNA, and 2 mM vanadyl complex for 15 min at 80° C. Following probe staining, cells were then washed in 30% formamide and 2×SSC mixture for 30 min at 42° C., then washed in 30% formamide and 2×SSC mixture for 30 min at 37° C., and then washed in 1×SSC solution for 10 min at room temperature, and finally washed in 1×PBS for 10 min at room temperature. For staining of myotube nuclei, cells were stained with anti-Myogenin antibody diluted in 1% bovine serum albumin (BSA) for overnight at 4° C. and washed twice with 1×PBS for 10 min each at room temperature. Cells were then incubated with the secondary antibody goat anti-rabbit Alexa 647 (Thermo Fisher, A32728) diluted in 1% BSA for 1 hr at room temperature and washed twice with 1×PBS for 10 min each at room temperature. […] RNA foci quantifications were accomplished with a customized analysis module of the MetaXpress program (Molecular Devices). […]
# [3] = tested on: E-boxes within intron 1 of human DMPK gene; experiment: PCR, TapeStation and ICE verification of E-box excision (SaCas9/SluCas9 RNP); type: cell-based; conditions: DM1 patient myoblasts, 3 μM DNA-PKi Compound 6 for 48 h, TapeStation and ICE analysis
# Description: Primary healthy myoblasts (P01431-18F) and DM1 patient myoblasts (03001-32F) were obtained from Cook MyoSite. Myoblasts were maintained in myoblast growth medium consisted of Myotonic™ Basal Medium (Cook Myosite, MB-2222) and Myotonic™ Growth Supplement (Cook Myosite, MS-3333) and purified with EasySep Human CD56 Positive Selection Kit II (StemCell Tech, 17855) following the manufacturer's instruction. Purified myoblasts were then banked in liquid nitrogen tank until 3-4 days before nucleofection.
# The RNPs were assembled with either recombinant SaCas9 protein (Aldevron) or SluCas9 (Aldevron) and chemically modified sgRNAs (Synthego) at a ratio of 1:3 (protein:sgRNA). Specifically, SaCas9 RNPs complexes were first assembled for individual sgRNAs with 20 pmol of SaCas9 protein and 60 pmol of sgRNAs in 5 μL of P5 Nucleofector Solution. SluCas9 RNPs complexes were first assembled for individual sgRNAs with 15 pmol of SluCas9 and 45 pmol of sgRNAs in 5 μL of P5 Nucleofector Solution. […]
# Genomic DNA of DM1 myoblasts was isolated with the Kingfisher Flex purification system (Thermal Fisher) in 96-well format following the manufacturer's instruction. […] The PCR products were analyzed by gel electrophoresis. […]
# DMPK mRNA = DMPK mRNA expression by ddPCR (SaCas9/SluCas9 sgRNA pairs); type: cell-based, human; conditions: DM1 myotubes, 3 μM DNA-PKi Compound 6 for 48 h
# Description: mRNA of DM1 myotubes was isolated with the Kingfisher Flex purification system (Thermal Fisher) in 96-well format following the manufacturer's instruction. cDNA was synthesized with SuperScript™ IV VILO™ Master Mix with ezDNase™ Enzyme (Thermal Fisher) following mRNA isolation.
# The primers and probes of ddPCR for hDMPK and GAPDH were pre-designed by Fisher Scientifics qPCR assays (Hs00266705_g1 and Hs01094329_m1). For DMPK expression, one target primer/probe set was used to detect DMPK expression levels, and one reference primer/probe set was used to detect GAPDH expression levels. The 24 μL of ddPCR reaction consisted of 12 μL of Supermix for Probes (no dUTP) (Bio-Rad Laboratories), 1 μL of Reference primers mix (21.6 μM), 1 μL of Reference probe (6 μM), 1 μL of Target primers mix (21.6 μM), 1 μL of Target probe (6 μM), 2 μL of H2O and 6 μL of sample genomic DNA. Droplets were generated using probe oil with the QX200 Droplet Generator (Bio-Rad Laboratories). […] The cycled plate was then transferred and read in the FAM and HEX channels using the Bio-Rad QX200 Droplet Reader (Bio-Rad Laboratories). ddPCR analysis was performed with the Bio-Rad QuantaSoft Pro Software. […]
compound,measurement,setting,value
"SaU3D1: SaCas9 sgRNA pair SaU3 + SaD1, SEQ ID NOs 1302/1305, delivered as RNP (guide 1 TCTCTGCACCCCGCCTCAGGGT; guide 2 CTGGTTCTCCCACAGGGCCCGC; delivered as SaCas9 RNP, further chemistry not given here)",average Foci reduction,[1],~50%
"SaU1DI: SaCas9 sgRNA pair SaU1 + SaD1, SEQ ID NOs 1300/1305, delivered as RNP (guide 1 ATGGCCTCTCTGCACCCCGCCT; guide 2 CTGGTTCTCCCACAGGGCCCGC; delivered as SaCas9 RNP, further chemistry not given here)",average Foci reduction,[1],~50%
Cc1ccnc(N[C@H]2CC[C@@H](Oc3cc(N4CCOCC4)cc4nonc34)CC2)n1 [Compound 6],"foci-free myonuclei, DNA-PKi-treated versus vehicle-treated",[2],substantially higher
same,"expected excision, DNA-PKi group compared to the vehicle group",[3],more apparent expected excision
same,"hDMPK mRNA reduction, DNA-Pki treatment group versus DMSO group",DMPK mRNA,more dramatic hDMPK mRNA reduction
same,further average foci number reduction in myonuclei by DNA-PKi,"[1]; DM1 patient myotubes, DNA-PKi group versus DMSO group",no further average foci number reduction
"sluU3D3: SluCas9 sgRNA pair SluU3 + SluD3, delivered as RNP (guide 1 TCTCTGCACCCCGCCTCAGGGT; guide 2 CTGCGATCCAGGAGGGACAACT; delivered as SaCas9 RNP, further chemistry not given here)",average Foci reduction,[1],~50%
"saU5D1: SaCas9 sgRNA pair SaU5 + SaD1, SEQ ID NOs 1304/1305, delivered as RNP (guide 1 CCATAGAGCCCACTTTTGGGGG; guide 2 CTGGTTCTCCCACAGGGCCCGC; delivered as SaCas9 RNP, further chemistry not given here)",average Foci reduction,[1],~50%
"sluU64D34: control CTG repeat excision SluCas9 sgRNA pair, SEQ ID NOs 1497 and 1498 (guide 1 GGGGCTCGAAGGGTCCTTGTAG; guide 2 CGCGCCAGACGCTCCCCAGAGC; listed as DNA, chemistry not given here) [reference compound]",average Foci reduction,[1],~50%
"sluU3D2: SluCas9 sgRNA pair SluU3 + SluD2, delivered as RNP (guide 1 TCTCTGCACCCCGCCTCAGGGT; guide 2 GAAGAACCCAAAGTTGTCCCTC; delivered as SaCas9 RNP, further chemistry not given here)",average Foci reduction,[1],~50%
"SaU3D3: SaCas9 sgRNA pair SaU3 + SaD3, SEQ ID NOs 1302/1307, delivered as RNP (guide 1 TCTCTGCACCCCGCCTCAGGGT; guide 2 CTGCGATCCAGGAGGGACAACT; delivered as SaCas9 RNP, further chemistry not given here)",average Foci reduction,[1],~50%
